{"source": "patent US20170071203A1", "about": "“Active compound combinations having insecticidal properties” (BAYER CROPSCIENCE AKTIENGESELLSCHAFT, priority 2014, published 2017)", "assay_type_in_all_cases": "in vivo", "key": {"[1]": {"tested_on": "mustard beetle larvae (Phaedon cochleariae)", "experiment": "Phaedon cochleariae - spray test", "conditions": "20 g ai/ha", "excerpt": "(§1) The expected activity for a given combination of two active compounds can be calculated according to S. R. Colby, Weeds 15 (1967), 20-22 as follows:\n(§2) • X is the kill rate, expressed in % of the untreated control, when active compound A is applied at an application rate of m g/ha or at a concentration of m ppm, • Y is the kill rate, expressed in % of the untreated control, when active compound B is applied at an application rate of n g/ha or at a concentration of n ppm and • E is the kill rate, expressed in % of the untreated control, when active compounds A and B is applied at application rates of m and n g/ha or at a concentration of m and n ppm, then\n(§3) If the observed insecticidal efficacy of the combination is higher than the one calculated as “E”, then the combination of the two compounds is more than additive, i.e., there is a synergistic effect.\nTo produce a suitable preparation of active compound, 1 part by weight of active compound is mixed with the stated amount of solvents and is diluted with water, containing an emulsifier concentration of 1000 ppm, to the desired concentration. […]\nAfter the specified period of time, mortality in % is determined 100% means all beetle larvae have been killed and 0% means none of the beetle larvae have been killed. The mortality values determined thus are recalculated using the Colby-formula (see sheet 1)."}, "[2]": {"tested_on": "green peach aphid (Myzus persicae)", "experiment": "Myzus persicae - spray test", "excerpt": "as §1, §2, §3\n(§4) To produce a suitable preparation of active compound, 1 part by weight of active compound is mixed with the stated amount of solvents and is diluted with water, containing an emulsifier concentration of 1000 ppm, to the desired concentration. To produce a suitable preparation of a spore suspension the spores are diluted with emulsifier containing water to the desired concentration. Further test concentrations are prepared by dilution with emulsifier containing water.\nChinese cabbage (Brassica pekinensis) leaf disks infected with all instars of the green peach aphid (Myzus persicae), are sprayed with a preparation of the active ingredient of the desired concentration.\nAfter the specified period of time, mortality in % is determined 100% means all aphids have been killed; 0% means none of the aphids have been killed. The mortality values determined thus are recalculated using the Colby-formula (see sheet 1)."}, "[3]": {"tested_on": "two spotted spidermite (Tetranychus urticae)", "experiment": "Tetranychus urticae - spray test, OP-resistant", "excerpt": "as §1, §2, §3, §4\nFrench bean (Phaseolus vulgaris) leaf disks which are heavily infested with all stages of the two spotted spidermite (Tetranychus urticae), are sprayed with a preparation of the active ingredient of the desired concentration.\nAfter the specified period of time, mortality in % is determined. 100% means all spider mites have been killed and 0% means none of the spider mites have been killed. The mortality values determined thus are recalculated using the Colby-formula (see sheet 1)."}, "[4]": {"tested_on": "larvae of the cotton boll worm (Heliothis armigera)", "experiment": "Heliothis armigera - spray test", "excerpt": "as §1, §2, §3\nTo produce a suitable preparation of active compound, 1 part by weight of active compound is mixed with the stated amount of solvent and is diluted with water, containing an emulsifier concentration of 1000 ppm, to the desired concentration. Further test concentrations are prepared by dilution with emulsifier containing water Ammonium salt and/or penetration enhancer in a dosage of 1000 ppm are added to the desired concentration if necessary.\nCotton plants (Gossypium hirsutum) are treated by being sprayed with the preparation of the active compound of the desired concentration and are infested with larvae of the cotton boll worm (Heliothis armigera).\nAfter the specified period of time, the mortality in % is determined 100% means all caterpillars have been killed; 0% means none of the caterpillars have been killed. The mortality values determined thus are recalculated using the Colby-formula (see sheet 1)."}}}
{"smiles": "CN1COCN(Cc2cnc(Cl)s2)/C1=N\\[N+](=O)[O-]", "note": "[Thiamethoxam]", "values": [{"measurement": "Efficacy in % after 2d", "setting": "[1]; after 2 d, Chinese cabbage leaf disks", "value": 0, "unit": "%"}, {"measurement": "Efficacy in % after 6d", "setting": "[1]; after 6 d", "value": 0, "unit": "%"}]}
{"smiles": "CN/C(=N\\[N+](=O)[O-])NCc1cnc(Cl)s1", "note": "[Clothianidin]", "values": [{"measurement": "Efficacy in % after 6d", "setting": "[2]; 0.15 g ai/ha", "value": 0, "unit": "%"}, {"measurement": "Efficacy in % after 2d", "setting": "[3]; 4 g ai/ha", "value": 0, "unit": "%"}]}
{"smiles": "C/C(=N\\C#N)N(C)Cc1ccc(Cl)nc1", "note": "[Acetamiprid]", "values": [{"measurement": "Efficacy in % after 6d", "setting": "[2]; 1.6 g ai/ha", "value": 70, "unit": "%"}, {"measurement": "Efficacy in % after 6d", "setting": "[3]; 0.8 g ai/ha", "value": 0, "unit": "%"}]}
{"smiles": "O=[N+]([O-])NC1=NCCN1Cc1ccc(Cl)nc1", "note": "[Imidacloprid]", "values": [{"measurement": "Efficacy in % after 2d", "setting": "[3]; 0.8 g ai/ha", "value": 0, "unit": "%"}, {"measurement": "Efficacy in % after 2d", "setting": "[3]; 4 g ai/ha", "value": 0, "unit": "%"}, {"measurement": "Efficacy in % after 1d", "setting": "[4]; 80 ppm", "value": 0, "unit": "%"}, {"measurement": "Efficacy in % after 1d", "setting": "[4]; 160 ppm", "value": 0, "unit": "%"}, {"measurement": "Efficacy in % after 1d", "setting": "[4]; 320 ppm", "value": 30, "unit": "%"}, {"measurement": "Efficacy in % after 2d", "setting": "[4]; 320 ppm, after 2 d", "value": 70, "unit": "%"}]}
{"smiles": "CS(=O)(=O)NC(=O)c1cccc(-c2cnc(-c3cccnc3)s2)n1", "note": "[Thiazolamid (II-11)]", "values": [{"measurement": "Efficacy in % after 2d", "setting": "[3]; 20 g ai/ha", "value": 0, "unit": "%"}]}
{"smiles": "CN/C(=N/CC1CCOC1)N[N+](=O)[O-]", "note": "(stereo not drawn) [Dinotefuran]", "values": [{"measurement": "Efficacy in % after 6d", "setting": "[2]; 4.8 g ai/ha", "value": 0, "unit": "%"}, {"measurement": "Efficacy in % after 6d", "setting": "[2]; 9.6 g ai/ha", "value": 70, "unit": "%"}, {"measurement": "Efficacy in % after 6d", "setting": "[3]; 4 g ai/ha", "value": 0, "unit": "%"}, {"measurement": "Efficacy in % after 2d", "setting": "[3]; 20 g ai/ha", "value": 0, "unit": "%"}]}
{"smiles": "N#C/N=C1\\SCCN1Cc1ccc(Cl)nc1", "note": "[Thiacloprid]", "values": [{"measurement": "Efficacy in % after 1d", "setting": "[2]; 0.8 g ai/ha, after 1 d", "value": 0, "unit": "%"}]}
